These results are taken from patent US10414832B2, “Derivatives of sulfated polysaccharides, method of preparation, modification and use thereof” (Contipro a.s., priority 2015, dated 2019).

The conditions of data set [1]: purchased from Sigma Aldrich; cited from earlier work.
The nature of a further data set: Solubility in DMSO. It counts as physicochemical. The settings on record: lyophilized acid form. How it is done: A 1% solution of chondroitin sulfate (500 mg, 1.1 mmol) in distilled water was prepared. The solution was cooled to 5° C. and 1.2 ml of Amberlite IR 120 Na(H^+) catex was added. The reaction mixture was stirred for 24 h at 5° C. The catex was filtered off, the product was frozen and lyophilized. Its solubility in DSMO was tested and found satisfactory.

The next data set concerns 3T3 fibroblasts. Put plainly: Viability tests of 3T3 fibroblasts (MTT method). It counts as cell-based. As to conditions: 3T3 cells, 10, 100, 500 and 1000 μg·mL^−1, 0, 24, 48, 72 hours. How it is done:
FIG. 3 illustrates the results of the cell viability tests of 3T3 fibroblasts in α,β-unsaturated aldehyde of chondroitin sulfate (Mw=4×10^4 g/mol, DS=20%). The activation vs inhibition curve, expressed in %, with respect to the control in time T=0 h (100%). Evaluation by means of MTT method, six repetitions.
The tested substance, α,β-unsaturated aldehyde of chondroitin sulfate (DS=20%, Mw=40 kDa), was dissolved in a complete 3T3 medium. The solution was filtered via a 0.22 μm filter. The final test concentrations of the tested solution were 10, 100, 500, and 1000 μg·mL^−1. 3T3 cells of the density of 3000 cells per a well were inoculated into 96-well plates. Before the treatment, the cells were cultured for 24 hours in a complete medium. The cell viability was evaluated by spectrophotometry by means of 3-[4,5-dimethylthiazole-2-yl]-2,5-diphenyl tetrazolium bromide (MTT method) in the intervals of 0, 24, 48, 72 hours. The whole experiment was supplemented with a set of non-treated controls and blank samples. The measured optical density data were converted into percentage formulation related to the control in the time T0 hours (the ratio of the optical density of the treated sample with respect to the optical density of the non-treated control T0, multiplied by 100) and the standard error of the mean (SEM) was calculated. The results of the test are graphically presented at FIG. 3.
(In general: Tetrazolium assays rely on reduction of a dye to a coloured formazan, in cell work by metabolically active cells.)

As for Lambda carrageenan, the solubility in water in data set [1] was 10000 µg/mL. As for “Acid Form of Chondroitin Sulfate [Example 26]”, the “solubility in DSMO” value in the data set “Solubility in DMSO” is listed as “satisfactory”.

With “α,β-unsaturated aldehyde of chondroitin sulfate”, in the data set with 3T3 fibroblasts, the “cytotoxicity (cell viability of 3T3 fibroblasts)” value is “not cytotoxic”. With sodium salt of dermatan sulfate, in data set [1], the solubility in water was 5000 µg/mL.
